According to the supplement of paper PMC10307832:

Legend:
Experiment in all cases: relative viability (nuclei count vs DMSO), 5 days (fraction); higher = more cells survive
KN-93 + Trametinib = compound: CN(C/C=C/C1=CC=C(C=C1)Cl)CC2=CC=CC=C2N(CCO)S(=O)(=O)C3=CC=C(C=C3)OC [KN-93] + CC(=O)Nc1cccc(-n2c(=O)n(C3CC3)c(=O)c3c(Nc4ccc(I)cc4F)n(C)c(=O)c(C)c32)c1 [Trametinib] (partner 0.02 µM)
Summary of the method: (§1)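 For relative viability, nuclei counts in treated wells were divided by those in vehicle wells. Lung cancer cell lines had been pin-tool dosed in 1536-well plates the day after seeding and cultured for 5 days, then fixed and stained in one step (final 0.05% Triton X-100, 1% formaldehyde, 1 ug/ml Hoechst) and imaged at 4×. Doses were one drug alone or a fixed anchor-drug dose plus five library-drug doses (not always all listed) in √10 steps, and values are duplicate-plate medians.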

KN-93 + Pictilisib = compound: CN(C/C=C/C1=CC=C(C=C1)Cl)CC2=CC=CC=C2N(CCO)S(=O)(=O)C3=CC=C(C=C3)OC [KN-93] + CS(=O)(=O)N1CCN(Cc2cc3nc(-c4cccc5[nH]ncc45)nc(N4CCOCC4)c3s2)CC1 [Pictilisib] (partner 1 µM)
Summary of the method: as §1

KN-93 + Crizotinib = compound: CN(C/C=C/C1=CC=C(C=C1)Cl)CC2=CC=CC=C2N(CCO)S(=O)(=O)C3=CC=C(C=C3)OC [KN-93] + C[C@@H](Oc1cc(-c2cnn(C3CCNCC3)c2)cnc1N)c1c(Cl)ccc(F)c1Cl [Crizotinib] (partner 1 µM)
Summary of the method: as §1

KN-93 + AZD7762 = compound: CN(C/C=C/C1=CC=C(C=C1)Cl)CC2=CC=CC=C2N(CCO)S(=O)(=O)C3=CC=C(C=C3)OC [KN-93] + NC(=O)Nc1cc(-c2cccc(F)c2)sc1C(=O)N[C@H]1CCCNC1 [AZD7762] (partner 0.2 µM)
Summary of the method: as §1

KN-93 + Olaparib = compound: CN(C/C=C/C1=CC=C(C=C1)Cl)CC2=CC=CC=C2N(CCO)S(=O)(=O)C3=CC=C(C=C3)OC [KN-93] + O=C(c1cc(Cc2n[nH]c(=O)c3ccccc23)ccc1F)N1CCN(C(=O)C2CC2)CC1 [Olaparib] (partner 8 µM)
Summary of the method: as §1

Cell Line	relative viability (KN-93 + Trametinib; first compound 0.08 µM)	relative viability (KN-93 + Trametinib; first compound 0.253 µM)	relative viability (KN-93 + Trametinib; first compound 2.53 µM)	relative viability (KN-93 + Trametinib; first compound 8 µM)	relative viability (KN-93 + Pictilisib; first compound 0.08 µM)	relative viability (KN-93 + Pictilisib; first compound 0.253 µM)	relative viability (KN-93 + Pictilisib; first compound 2.53 µM)	relative viability (KN-93 + Pictilisib; first compound 8 µM)	relative viability (KN-93 + Crizotinib; first compound 0.08 µM)	relative viability (KN-93 + Crizotinib; first compound 0.253 µM)	relative viability (KN-93 + Crizotinib; first compound 2.53 µM)	relative viability (KN-93 + Crizotinib; first compound 8 µM)	relative viability (KN-93 + AZD7762; first compound 0.08 µM)	relative viability (KN-93 + AZD7762; first compound 0.253 µM)	relative viability (KN-93 + AZD7762; first compound 2.53 µM)	relative viability (KN-93 + AZD7762; first compound 8 µM)	relative viability (KN-93 + Olaparib; first compound 0.08 µM)	relative viability (KN-93 + Olaparib; first compound 0.253 µM)	relative viability (KN-93 + Olaparib; first compound 2.53 µM)	relative viability (KN-93 + Olaparib; first compound 8 µM)
LCLC-103H	0.692	0.678	0.609	0.551	0.617	0.581	0.614	0.537	1.06	1.13	1.08	0.776	0.732	0.808	0.822	0.626	0.701	0.859	0.758	0.558
LU99A	0.603	0.626	0.496	0.431	0.302	0.366	0.32	0.308	0.529	0.703	0.566	0.504	0.31	0.323	0.38	0.336	0.257	0.271	0.244	0.264
NCI-H358	0.147	0.133	0.132	0.112	0.39	0.381	0.327	0.28	0.565	0.568	0.519	0.426	0.474	0.473	0.465	0.424	0.678	0.638	0.608	0.502
NCI-H2085	0.508	0.506	0.575	0.459	0.438	0.452	0.518	0.414	0.815	1.17	0.921	0.565	0.883	1.12	1.06	0.592	0.741	0.735	0.776	0.6
NCI-H1792	0.277	0.441	0.487	0.275		0.233	0.253	0.223		1.1	0.976	0.914	0.583	0.504	0.683	0.353	0.351	0.312	0.392	0.311
NCI-H647	0.353	0.499	0.468	0.466	0.493	0.327	0.462	0.336	0.916	1.48	1.13	0.511	0.398	0.557	0.447	0.381	0.648	0.766	0.881	0.421
HCC-15	0.359	0.367	0.348	0.306	0.547	0.866	0.861	0.524	0.664	0.961	0.795	0.682	1.18	1.24	1.38	1	0.658	0.731	0.719	0.522
HARA	0.632	0.549	0.434	0.461	0.366	0.36	0.3	0.2	1.04	1.51	0.946	0.51	0.303	0.392	0.193	0.271	0.524	0.584	0.718	0.336
